Results taken from US12109308B2, “Aqueous formulation comprising 1-(4-{[4-(dimethylamino)piperidin-1-yljcarbonyl}phenyl)-3-[4-(4,6-dimorpholin-4-yl-1,3,5-triazin-2-yl)phenyl]urea” (Pfizer Inc., priority 2018, dated 2024).

Columns and labels:
[1] = Stability and water solubility of the crystalline free base (background statement); type: physicochemical
[2] = only with lactic acid and orthophosphoric acid, of the many acids tested; no cyclodextrin; cited from earlier work

In the case of CN(C)C1CCN(C(=O)c2ccc(NC(=O)Nc3ccc(-c4nc(N5CCOCC5)nc(N5CCOCC5)n4)cc3)cc2)CC1 [1-(4-{[4-(Dimethylamino)piperidin-1-yl]carbonyl}phenyl)-3-[4-(4,6-dimorpholin-4-yl-1,3,5-triazin-2-yl)phenyl]urea], the “chemically and physically stable for (time)” value ([1]; crystalline form, 25° C. and 60% Relative Humidity (RH)) is given as “up to 3 years”, the “water solubility of the free base” value ([1]; for an aqueous solution formulation for intravenous or parenteral administration at therapeutic dosage levels) is given as “insufficiently water soluble” and the “concentration achieved as a clear solution” value [2] is given as no less than 3000 µg/mL.
